Results on 21 compounds are retold here after patent US10385019B2, “Inhibitors of EGFR and methods of use thereof” (Dana-Farber Cancer Institute, Inc., priority 2015, dated 2019).

For this test, the target named is EGFR T790M/L858R Ba/F3 cell line (Homo sapiens, UniProt P00533, T790M/L858R, cells depend on it). In words: Ba/F3 cell proliferation model. Type of test: cell-based, murine. To be noted: combined with cetuximab (% cetuximab, 1.0 μM drug concentration with 1.0 μg/mL cetuximab). Put shortly: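 Murine Ba/F3 cells made IL-3-independent by retroviral EGFR L858R/T790M, selected in puromycin (2 μg/ml) and kept in RPMI 1640 with 10% FBS. Cells were exposed to serially diluted compound for 72 h, with growth read by MTS assay in six wells per point and ≥3 repeats. Sigmoidal dose-response non-linear regression gave the values.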
Chain of EGFR T790M/L858R Ba/F3 cell line (P00533 whole entry T790M/L858R): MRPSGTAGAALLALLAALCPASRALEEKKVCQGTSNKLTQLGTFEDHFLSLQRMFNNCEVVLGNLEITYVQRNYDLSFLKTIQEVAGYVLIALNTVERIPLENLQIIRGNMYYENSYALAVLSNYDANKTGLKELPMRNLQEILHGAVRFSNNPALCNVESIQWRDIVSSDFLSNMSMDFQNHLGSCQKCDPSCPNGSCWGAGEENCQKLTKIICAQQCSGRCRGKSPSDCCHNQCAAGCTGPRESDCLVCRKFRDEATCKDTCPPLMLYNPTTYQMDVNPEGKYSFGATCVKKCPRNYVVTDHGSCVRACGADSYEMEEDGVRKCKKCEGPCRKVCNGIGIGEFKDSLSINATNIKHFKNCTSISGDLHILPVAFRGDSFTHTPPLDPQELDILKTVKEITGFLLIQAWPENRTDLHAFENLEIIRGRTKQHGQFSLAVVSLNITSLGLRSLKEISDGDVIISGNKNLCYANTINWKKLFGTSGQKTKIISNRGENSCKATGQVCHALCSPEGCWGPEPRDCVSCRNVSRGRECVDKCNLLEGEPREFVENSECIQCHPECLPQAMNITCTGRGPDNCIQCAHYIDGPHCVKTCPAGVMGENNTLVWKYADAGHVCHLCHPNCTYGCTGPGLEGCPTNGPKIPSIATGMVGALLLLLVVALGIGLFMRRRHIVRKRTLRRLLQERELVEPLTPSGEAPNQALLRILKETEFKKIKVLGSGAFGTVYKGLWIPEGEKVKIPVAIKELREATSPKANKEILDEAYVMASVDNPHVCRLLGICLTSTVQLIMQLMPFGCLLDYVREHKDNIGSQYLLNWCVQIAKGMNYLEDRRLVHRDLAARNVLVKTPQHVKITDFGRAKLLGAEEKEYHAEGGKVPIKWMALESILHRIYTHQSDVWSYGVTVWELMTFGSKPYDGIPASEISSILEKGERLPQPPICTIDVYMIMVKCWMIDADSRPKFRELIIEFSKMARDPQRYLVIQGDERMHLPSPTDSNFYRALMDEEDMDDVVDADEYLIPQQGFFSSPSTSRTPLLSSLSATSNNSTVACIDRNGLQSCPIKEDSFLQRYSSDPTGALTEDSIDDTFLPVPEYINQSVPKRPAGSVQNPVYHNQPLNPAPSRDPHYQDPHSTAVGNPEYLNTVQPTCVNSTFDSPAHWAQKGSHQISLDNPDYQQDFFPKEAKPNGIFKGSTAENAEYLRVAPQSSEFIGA
Consider `O=C(Nc1cc(C(F)(F)F)n[nH]1)[C@@H](c1ccccc1)N1Cc2ccccc2C1=O` [Compound I-30, (R)-2-(1-oxoisoindolin-2-yl)-2-phenyl-N-(3-(trifluoromethyl)-1H-pyrazol-5-yl)acetamide], for which the “Activity (% inhibition)” value is “A (a % inhibition of about 75%)”.
As for `O=C(Nc1nc(Br)cs1)[C@@H](c1ccccc1)N1Cc2ccccc2C1=O` [Compound I-36, (R)-N-(4-bromothiazol-2-yl)-2-(1-oxoisoindolin-2-yl)-2-phenylacetamide], the entry is “A (a % inhibition of about 75%)”; as for `O=C(Nc1nccs1)[C@@H](c1ccccc1)N1Cc2cc(Nc3ccccc3)ccc2C1=O` [Compound I-93, (R)-2-(1-oxo-5-(phenylamino)isoindolin-2-yl)-2-phenyl-N-(thiazol-2-yl)acetamide], “A (a % inhibition of about 75%)”.
With `CN(C)CCNC(=O)c1cccc(-c2ccc3c(c2)C(=O)N([C@@H](C(=O)Nc2nccs2)c2ccccc2)C3)c1` [Compound I-88, (R)-N-(2-(dimethylamino)ethyl)-3-(3-oxo-2-(2-oxo-1-phenyl-2-(thiazol-2-ylamino)ethyl)isoindolin-5-yl)benzamide] the entry was “C (a % inhibition of between about 25% to about 50%)”.
With `O=C(Nc1nc(C(=O)N2CCOCC2)cs1)[C@@H](c1ccccc1)N1Cc2ccccc2C1=O` [Compound I-22, (R)-N-(4-(morpholine-4-carbonyl)thiazol-2-yl)-2-(1-oxoisoindolin-2-yl)-2-phenylacetamide] the entry was “A (a % inhibition of about 75%)”; with `O=C(Nc1nccs1)[C@@H](c1ccccc1)N1Cc2ccc(-c3cccc(F)c3)cc2C1=O` [Compound I-76, (R)-2-(6-(3-fluorophenyl)-1-oxoisoindolin-2-yl)-2-phenyl-N-(thiazol-2-yl)acetamide], “B (a % inhibition of between about 50% to about 75%)”.
Regarding `O=C(Nc1nccs1)[C@@H](c1ccccc1)N1Cc2ccc(-c3ccncc3)cc2C1=O` [Compound I-61, (R)-2-(1-oxo-6-(pyridin-4-yl)isoindolin-2-yl)-2-phenyl-N-(thiazol-2-yl)acetamide], the “Activity (% inhibition)” value is “C (a % inhibition of between about 25% to about 50%)”.
As for `O=C(Nc1ccccc1Cl)[C@@H](c1ccccc1)N1Cc2ccccc2C1=O` [Compound I-52, (R)-N-(2-chlorophenyl)-2-(1-oxoisoindolin-2-yl)-2-phenylacetamide], the entry is “A (a % inhibition of about 75%)”; as for `C[C@H](C(=O)Nc1nccs1)N1Cc2ccc(-c3ccc4[nH]ccc4c3)cc2C1=O` [Compound I-116, (R)-2-(6-(1H-indol-5-yl)-1-oxoisoindolin-2-yl)-N-(thiazol-2-yl)propanamide], “A (a % inhibition of about 75%)”.
With `O=C(NCCCN1CCOCC1)c1cccc(-c2ccc3c(c2)C(=O)N([C@@H](C(=O)Nc2nccs2)c2ccccc2)C3)c1` [Compound I-91, (R)-N-(3-morpholinopropyl)-3-(3-oxo-2-(2-oxo-1-phenyl-2-(thiazol-2-ylamino)ethyl)isoindolin-5-yl)benzamide] the entry was “D (a % inhibition of between about 0% to about 25%)”.
As for `O=C(NCCN1CCOCC1)c1cccc(-c2ccc3c(c2)C(=O)N([C@@H](C(=O)Nc2nccs2)c2ccccc2)C3)c1` [Compound I-90, (R)-N-(2-morpholinoethyl)-3-(3-oxo-2-(2-oxo-1-phenyl-2-(thiazol-2-ylamino)ethyl)isoindolin-5-yl)benzamide], the entry is “C (a % inhibition of between about 25% to about 50%)”.
As to `O=C(Nc1nccs1)[C@@H](c1ccccc1)N1Cc2ccc(-c3ccc(OC(F)(F)F)cc3)cc2C1=O` [Compound I-74, (R)-2-(1-oxo-6-(4-(trifluoromethoxy)phenyl)isoindolin-2-yl)-2-phenyl-N-(thiazol-2-yl)acetamide], the “Activity (% inhibition)” value is listed as “B (a % inhibition of between about 50% to about 75%)”.
On to `O=C(Nc1cncnc1)[C@@H](c1ccccc1)N1Cc2ccc(-c3ccc4[nH]ccc4c3)cc2C1=O` [Compound I-134, (R)-2-(6-(1H-indol-5-yl)-1-oxoisoindolin-2-yl)-2-phenyl-N-(pyrimidin-5-yl)acetamide], for which the “Activity (% inhibition)” value is “A (a % inhibition of about 75%)”.
As for `Cc1csc(NC(=O)[C@@H](c2ccccc2)N2Cc3ccccc3C2=O)n1` [Compound I-5, (R)-N-(4-methylthiazol-2-yl)-2-(1-oxoisoindolin-2-yl)-2-phenylacetamide], the entry is “A (a % inhibition of about 75%)”; as for `O=C(Nc1ncc[nH]1)[C@H](c1ccccc1)N1Cc2ccccc2C1=O` [Compound I-35, (S)-N-(1H-imidazol-2-yl)-2-(1-oxoisoindolin-2-yl)-2-phenylacetamide], “A (a % inhibition of about 75%)”; as for `Cc1csc(NC(=O)[C@@H](c2ccccc2)N2Cc3ccc(-c4ccc5[nH]ccc5c4)cc3C2=O)n1` [Compound I-131, (R)-2-(6-(1H-indol-5-yl)-1-oxoisoindolin-2-yl)-N-(4-methylthiazol-2-yl)-2-phenylacetamide], “A (a % inhibition of about 75%)”.
In the case of `O=C(Nc1nccs1)[C@@H](c1ccccc1)N1Cc2ccc(-c3cncnc3)cc2C1=O` [Compound I-62, (R)-2-(1-oxo-6-(pyrimidin-5-yl)isoindolin-2-yl)-2-phenyl-N-(thiazol-2-yl)acetamide], the “Activity (% inhibition)” value is “B (a % inhibition of between about 50% to about 75%)”.
For `O=C(Nc1nc(CCCN2CCOCC2)cs1)[C@@H](c1ccccc1)N1Cc2ccccc2C1=O` [Compound I-43, (R)-N-(4-(3-morpholinopropyl)thiazol-2-yl)-2-(1-oxoisoindolin-2-yl)-2-phenylacetamide], the “Activity (% inhibition)” value was “A (a % inhibition of about 75%)”.
Regarding `O=C(Nc1cccnc1)[C@@H](c1ccccc1)N1Cc2ccccc2C1=O` [Compound I-7, (R)-2-(1-oxoisoindolin-2-yl)-2-phenyl-N-(pyridin-3-yl) acetamide], the “Activity (% inhibition)” value is given as “A (a % inhibition of about 75%)”.
For the compound `O=C(Nc1nccs1)[C@@H](c1ccccc1)N1Cc2ccc(C3=CCCCC3)cc2C1=O` [Compound I-86, (R)-2-(6-(cyclohex-1-en-1-yl)-1-oxoisoindolin-2-yl)-2-phenyl-N-(thiazol-2-yl)acetamide], the “Activity (% inhibition)” value was “B (a % inhibition of between about 50% to about 75%)”.
As for `O=C(Nc1cc(Br)ccn1)[C@H](c1ccccc1)N1Cc2ccccc2C1=O` [Compound I-29, (S)-N-(4-bromopyridin-2-yl)-2-(1-oxoisoindolin-2-yl)-2-phenylacetamide], the entry is “A (a % inhibition of about 75%)”.
